Usually IC50 stands for the concentration that gives 50% inhibition. A low value points to greater potency in that assay.

Among the data in ChEMBL document CHEMBL1138548, “Three-dimensional QSAR analyses of 1,3,4-trisubstituted pyrrolidine-based CCR5 receptor inhibitors” (Eur J Med Chem, 2008) are IC50 values, retold here.

Chain of C-C chemokine receptor type 5 (P51681 whole entry): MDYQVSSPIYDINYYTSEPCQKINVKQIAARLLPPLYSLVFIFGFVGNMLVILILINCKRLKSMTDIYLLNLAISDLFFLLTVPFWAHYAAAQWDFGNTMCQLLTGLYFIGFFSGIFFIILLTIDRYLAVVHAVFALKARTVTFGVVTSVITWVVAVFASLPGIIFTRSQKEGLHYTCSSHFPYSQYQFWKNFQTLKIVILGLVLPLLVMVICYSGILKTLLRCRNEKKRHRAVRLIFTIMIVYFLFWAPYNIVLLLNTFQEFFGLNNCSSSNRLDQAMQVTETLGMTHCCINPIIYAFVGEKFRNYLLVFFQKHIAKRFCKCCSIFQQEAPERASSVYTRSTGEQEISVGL

The assay has as its target C-C chemokine receptor type 5 (Homo sapiens, UniProt P51681). Put plainly: biochemical. The format is cell-based, CHO.
Description: Displacement of [125I]MIP1alpha from human CCR5 expressed in CHO cells
Molecule `O=C(O)[C@@H](CC1CCCCC1)N1C[C@H](CN2CCC(CCC(F)(F)c3ccc(F)cc3)CC2)[C@@H](c2ccccc2)C1` showed a 50% inhibitory concentration (IC50) of 0.3 nM.

Molecule `CCc1nc(Cc2ccccc2)sc1C1CCN(C[C@H]2CN([C@H](CC3CCC3)C(=O)O)C[C@@H]2c2ccccc2)CC1` had an IC50 of 0.76 nM.

As for `CC(C)(c1ccccc1)c1cc(C2CCN(C[C@H]3CN([C@@H](C(=O)O)C4CCCCC4)C[C@@H]3c3ccccc3)CC2)[nH]n1`, it took 11.5 nM to reach half-maximal inhibition (IC50).

Take `O=C(O)[C@@H](CC1CC1)N1C[C@H](CN2CCC(CCC(OCCO)c3ccc(F)cc3)CC2)[C@@H](c2cccc(F)c2)C1` (some centres not stated): the concentration for half-maximal inhibition (IC50) was 3.7 nM.

`CC(C)C[C@H](C(=O)O)N1C[C@H](CN2CCC(CCS(=O)(=O)c3ccc(F)cc3)CC2)[C@@H](c2cccc(F)c2)C1` yielded an IC50 of 0.9 nM.

For the molecule `C=C(Cc1ccccc1)[C@@H](C1CCCCC1)N1C[C@H](CN2CCC(O)(CCCc3ccccc3)CC2)[C@@H](c2ccccc2)C1`, the IC50 turned out to be 3.6 nM.

As to `O=C(O)[C@@H](CC1CCC1)N1C[C@H](CN2CCC(c3nnc4ccccn34)CC2)[C@@H](c2cccc(F)c2)C1`, the midpoint of inhibition, the IC50, lay at 12 nM.

Take `CC(C)C[C@H](C(=O)O)N1C[C@H](CN2CCC(CCSc3ccc(F)cc3)CC2)[C@@H](c2cccc(F)c2)C1`: the IC50 was 0.8 nM.

For `CCn1nc(-c2ccc(CN)cc2)cc1C1CCN(C[C@H]2CN([C@@H](C(=O)O)C3CCCCC3)C[C@@H]2c2ccccc2)CC1`, the IC50 was found to be 122 nM.

Turning to `O=C(O)[C@@H](C1CCCCC1)N1C[C@H](CN2CCC(c3cc(C(F)(F)c4ccccc4)n[nH]3)CC2)[C@@H](c2ccccc2)C1`, the midpoint of inhibition, the IC50, lay at 2.1 nM.

`CC(C)C[C@H](C(=O)O)N1C[C@H](CN2CCC(CCC(F)(F)c3ccc(F)cc3)CC2)[C@@H](c2cccc(F)c2)C1` showed an IC50 of 0.5 nM.

As to `CCc1nc(Cc2ccccc2)sc1C1CCN(C[C@H]2CN([C@H](CC(C)C)C(=O)O)C[C@@H]2c2ccccc2)CC1`, the IC50 is 1 nM.

In the case of `O=C(O)[C@@H](CC1CCC1)N1C[C@H](CN2CCC(c3[nH]c(Cc4ccccc4)nc3Cl)CC2)[C@@H](c2ccccc2)C1`, half-maximal inhibition (IC50) was put at 0.6 nM.

`Cn1nnc(-c2ccc(CCCC3(O)CCN(C[C@H]4CN(CC5CCCCC5)C[C@@H]4c4ccccc4)CC3)cc2)n1` yielded a 50% inhibitory concentration (IC50) of 0.4 nM.

On to `CCc1nc(Cc2ccccc2)[nH]c1C1CCN(C[C@H]2CN([C@H](CC3CCC3)C(=O)O)C[C@@H]2c2ccccc2)CC1`, for which the IC50 was found to be 0.57 nM.

`CCc1nc(Cc2ccccc2)oc1C1CCN(C[C@H]2CN([C@H](CC3CCC3)C(=O)O)C[C@@H]2c2ccccc2)CC1` displayed an IC50 of 0.89 nM.

`O=C(O)[C@@H](CC1CCC1)N1C[C@H](CN2CCC(c3cnc(Cc4ccccc4)s3)CC2)[C@@H](c2ccccc2)C1`: the IC50 came to 0.23 nM.

In the case of `O=C(O)[C@@H](C1CCCCC1)N1C[C@H](CN2CCC(c3cc(Cc4ccccc4)no3)CC2)[C@@H](c2ccccc2)C1`, the IC50 was 0.8 nM.

As for `CCn1nc(C(C)(C)c2ccccc2)cc1C1CCN(C[C@H]2CN([C@@H](C(=O)O)C3CCCCC3)C[C@@H]2c2ccccc2)CC1`, inhibition was half-maximal at 6.9 nM (IC50).

`O=C(O)[C@@H](CC1CCC1)N1C[C@H](CN2CCC(c3cn4cccnc4n3)CC2)[C@@H](c2cccc(F)c2)C1`: half-maximal inhibition (IC50) was put at 200 nM.

`O=C(O)[C@@H](C1CCCCC1)N1C[C@H](CN2CCC(c3cc(Cc4ccccc4)on3)CC2)[C@@H](c2ccccc2)C1` returned an IC50 of 1.2 nM.

`O=C(O)[C@@H](CC1CC1)N1C[C@H](CN2CCC(c3cnc(Cc4ccccc4)s3)CC2)[C@@H](c2ccccc2)C1` registered an IC50 of 0.23 nM.
